# Where “and” joins values, the source holds several entries; their conditions need not be identical. Equal entries are not always repeated.
# Columns and labels:
# Experiment in all cases: radiometric filter-binding kinase assay, Kinase HotSpot
# Details in all cases: compound 0.5 µM; ATP 10 µM
# EPHA2 (human) = EPHA2 (human) (UniProt P29317)
# CAMK1G (human) = CAMK1G (human) (UniProt Q96NX5)
# MAP2K1 (human) = MAP2K1 (human) (UniProt Q02750)
# HIPK2 (human) = HIPK2 (human) (UniProt Q9H2X6)
# RPS6KA3 KD1 KD2 (human) = RPS6KA3 KD1 KD2 (human) (UniProt P51812)
# WEE1 (human) = WEE1 (human) (UniProt P30291)
# PRKD2 (human) = PRKD2 (human) (UniProt Q9BZL6)
# PAK6 (human) = PAK6 (human) (UniProt Q9NQU5)
# CAMK1D (human) = CAMK1D (human) (UniProt Q8IU85)
# SRC (human) = SRC (human) (UniProt P12931)
# MAPK3 (human) = MAPK3 (human) (UniProt P27361)
# SGK3 (human) = SGK3 (human) (UniProt Q96BR1)
# PKN2 (human) = PKN2 (human) (UniProt Q16513)
# LYN (human) = LYN (human) (UniProt P07948)
# STK10 (human) = STK10 (human) (UniProt O94804)
# PRKCE (human) = PRKCE (human) (UniProt Q02156)
# FGFR4 (human) = FGFR4 (human) (UniProt P22455)
# SIK2 (human) = SIK2 (human) (UniProt Q9H0K1)
# ULK1 (human) = ULK1 (human) (UniProt O75385)
# NTRK1 (human) = NTRK1 (human) (UniProt P04629)
# TSSK2 (human) = TSSK2 (human) (UniProt Q96PF2)
# PLK3 (human) = PLK3 (human) (UniProt Q9H4B4)
# PASK (human) = PASK (human) (UniProt Q96RG2)
# NEK2 (human) = NEK2 (human) (UniProt P51955)
# PTK6 (human) = PTK6 (human) (UniProt Q13882)
# PHKG1 (human) = PHKG1 (human) (UniProt Q16816)
# CDK5 CDK5R1 p35 (human) = CDK5 CDK5R1 p35 (human) (UniProt Q00535+Q15078)
# MAPK12 (human) = MAPK12 (human) (UniProt P53778)
# MET (human) = MET (human) (UniProt P08581)
# GRK7 (human) = GRK7 (human) (UniProt Q8WTQ7)
# MUSK (human) = MUSK (human) (UniProt O15146)
# TGFBR2 (human) = TGFBR2 (human) (UniProt P37173)
# CAMKK2 (human) = CAMKK2 (human) (UniProt Q96RR4)
# SRPK2 (human) = SRPK2 (human) (UniProt P78362)
# DYRK4 (human) = DYRK4 (human) (UniProt Q9NR20)
# WNK3 (human) = WNK3 (human) (UniProt Q9BYP7)
# VRK1 (human) = VRK1 (human) (UniProt Q99986)
# CDC42BPA (human) = CDC42BPA (human) (UniProt Q5VT25)
# DAPK1 (human) = DAPK1 (human) (UniProt P53355)
# CSNK2A1 (human) = CSNK2A1 (human) (UniProt P68400)
# NEK3 (human) = NEK3 (human) (UniProt P51956)
# TBK1 (human) = TBK1 (human) (UniProt Q9UHD2)
# Chain of SIK2 (human) (Q9H0K1 whole entry, looked up): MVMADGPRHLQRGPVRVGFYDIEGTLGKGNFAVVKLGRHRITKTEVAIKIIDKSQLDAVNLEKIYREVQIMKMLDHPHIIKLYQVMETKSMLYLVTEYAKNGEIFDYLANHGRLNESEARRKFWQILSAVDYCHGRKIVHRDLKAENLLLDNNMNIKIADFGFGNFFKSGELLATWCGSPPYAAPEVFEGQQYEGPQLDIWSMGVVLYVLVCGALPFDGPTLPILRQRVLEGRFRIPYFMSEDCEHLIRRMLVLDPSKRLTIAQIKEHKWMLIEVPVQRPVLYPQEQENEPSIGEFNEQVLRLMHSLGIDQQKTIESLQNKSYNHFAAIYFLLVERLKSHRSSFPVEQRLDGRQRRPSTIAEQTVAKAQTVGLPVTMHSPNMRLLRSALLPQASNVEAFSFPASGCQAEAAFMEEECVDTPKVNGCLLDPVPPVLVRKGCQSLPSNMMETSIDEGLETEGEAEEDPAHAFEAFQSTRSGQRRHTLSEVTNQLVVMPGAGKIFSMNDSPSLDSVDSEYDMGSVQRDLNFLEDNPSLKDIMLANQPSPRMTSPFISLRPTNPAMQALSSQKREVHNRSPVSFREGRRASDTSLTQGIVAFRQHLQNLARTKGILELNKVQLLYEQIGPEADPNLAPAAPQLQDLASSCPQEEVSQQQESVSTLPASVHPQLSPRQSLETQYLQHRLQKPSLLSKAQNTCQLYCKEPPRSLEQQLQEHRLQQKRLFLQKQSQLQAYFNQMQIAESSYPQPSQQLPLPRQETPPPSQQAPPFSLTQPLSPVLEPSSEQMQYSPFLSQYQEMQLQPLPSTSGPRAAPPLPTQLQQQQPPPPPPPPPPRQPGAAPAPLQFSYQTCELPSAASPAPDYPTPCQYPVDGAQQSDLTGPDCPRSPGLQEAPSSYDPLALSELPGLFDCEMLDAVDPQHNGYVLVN
# Chain of NEK2 (human) (P51955 whole entry, looked up): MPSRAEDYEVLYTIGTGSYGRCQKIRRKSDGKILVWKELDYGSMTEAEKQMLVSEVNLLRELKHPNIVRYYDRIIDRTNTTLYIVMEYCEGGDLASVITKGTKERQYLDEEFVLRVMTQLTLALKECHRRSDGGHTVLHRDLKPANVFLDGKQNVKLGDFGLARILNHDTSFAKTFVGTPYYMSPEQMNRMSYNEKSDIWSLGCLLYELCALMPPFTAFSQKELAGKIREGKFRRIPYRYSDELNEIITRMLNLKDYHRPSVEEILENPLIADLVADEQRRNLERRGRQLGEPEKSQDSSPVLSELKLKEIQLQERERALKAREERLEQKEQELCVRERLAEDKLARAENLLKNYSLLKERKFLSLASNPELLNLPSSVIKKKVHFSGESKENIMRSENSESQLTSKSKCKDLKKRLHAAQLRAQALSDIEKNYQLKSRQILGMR
# Chain of PASK (human) (Q96RG2 whole entry, looked up): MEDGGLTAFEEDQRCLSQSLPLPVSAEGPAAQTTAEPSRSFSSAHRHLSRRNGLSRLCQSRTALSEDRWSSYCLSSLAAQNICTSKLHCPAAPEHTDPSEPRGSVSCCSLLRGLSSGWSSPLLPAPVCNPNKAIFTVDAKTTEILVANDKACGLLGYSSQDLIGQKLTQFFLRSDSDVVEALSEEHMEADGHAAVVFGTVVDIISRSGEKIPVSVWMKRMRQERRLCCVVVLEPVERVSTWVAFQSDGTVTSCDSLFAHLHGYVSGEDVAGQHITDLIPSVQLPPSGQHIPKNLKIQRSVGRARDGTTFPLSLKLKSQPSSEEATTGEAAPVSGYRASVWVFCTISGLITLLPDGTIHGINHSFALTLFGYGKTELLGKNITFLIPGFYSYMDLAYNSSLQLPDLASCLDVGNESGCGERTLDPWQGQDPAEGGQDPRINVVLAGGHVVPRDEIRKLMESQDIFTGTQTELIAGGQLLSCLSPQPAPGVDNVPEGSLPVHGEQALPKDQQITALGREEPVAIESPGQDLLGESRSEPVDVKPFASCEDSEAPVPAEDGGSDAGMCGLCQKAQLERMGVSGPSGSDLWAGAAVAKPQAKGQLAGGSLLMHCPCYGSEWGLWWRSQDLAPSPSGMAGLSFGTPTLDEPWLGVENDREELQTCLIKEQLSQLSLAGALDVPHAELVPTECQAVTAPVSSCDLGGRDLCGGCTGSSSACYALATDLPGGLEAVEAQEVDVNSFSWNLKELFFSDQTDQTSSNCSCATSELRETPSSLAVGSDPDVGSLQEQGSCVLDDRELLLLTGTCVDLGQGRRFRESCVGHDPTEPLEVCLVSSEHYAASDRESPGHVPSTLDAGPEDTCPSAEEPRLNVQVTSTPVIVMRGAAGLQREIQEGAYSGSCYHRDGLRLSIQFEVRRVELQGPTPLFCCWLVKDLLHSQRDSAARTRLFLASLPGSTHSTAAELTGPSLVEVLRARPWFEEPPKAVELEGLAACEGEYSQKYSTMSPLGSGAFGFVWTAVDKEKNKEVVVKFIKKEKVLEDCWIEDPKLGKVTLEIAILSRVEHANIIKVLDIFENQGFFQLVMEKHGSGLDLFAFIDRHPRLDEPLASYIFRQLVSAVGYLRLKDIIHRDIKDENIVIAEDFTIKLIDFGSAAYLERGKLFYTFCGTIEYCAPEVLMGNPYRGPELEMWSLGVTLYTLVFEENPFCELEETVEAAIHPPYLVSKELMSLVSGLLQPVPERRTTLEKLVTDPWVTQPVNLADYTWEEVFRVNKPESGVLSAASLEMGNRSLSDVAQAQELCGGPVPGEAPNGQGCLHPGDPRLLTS
# Chain of WEE1 (human) (P30291 whole entry, looked up): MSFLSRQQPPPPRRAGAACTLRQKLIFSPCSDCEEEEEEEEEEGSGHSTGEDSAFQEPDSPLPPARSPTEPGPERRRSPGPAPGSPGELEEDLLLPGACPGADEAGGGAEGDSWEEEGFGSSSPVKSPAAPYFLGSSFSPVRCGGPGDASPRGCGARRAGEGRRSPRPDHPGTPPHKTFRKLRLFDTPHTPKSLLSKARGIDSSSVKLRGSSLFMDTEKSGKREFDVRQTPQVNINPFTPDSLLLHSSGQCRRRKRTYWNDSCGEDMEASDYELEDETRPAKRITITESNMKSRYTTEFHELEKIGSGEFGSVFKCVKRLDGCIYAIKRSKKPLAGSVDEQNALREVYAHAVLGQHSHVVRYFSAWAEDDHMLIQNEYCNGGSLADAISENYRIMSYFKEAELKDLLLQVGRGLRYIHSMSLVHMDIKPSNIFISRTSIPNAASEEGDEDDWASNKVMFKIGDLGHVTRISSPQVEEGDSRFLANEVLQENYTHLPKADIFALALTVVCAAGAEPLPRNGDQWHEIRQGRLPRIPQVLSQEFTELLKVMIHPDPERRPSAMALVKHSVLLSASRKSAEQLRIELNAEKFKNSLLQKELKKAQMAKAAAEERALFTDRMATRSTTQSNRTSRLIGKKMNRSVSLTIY
# Chain of MAPK3 (human) (P27361 whole entry, looked up): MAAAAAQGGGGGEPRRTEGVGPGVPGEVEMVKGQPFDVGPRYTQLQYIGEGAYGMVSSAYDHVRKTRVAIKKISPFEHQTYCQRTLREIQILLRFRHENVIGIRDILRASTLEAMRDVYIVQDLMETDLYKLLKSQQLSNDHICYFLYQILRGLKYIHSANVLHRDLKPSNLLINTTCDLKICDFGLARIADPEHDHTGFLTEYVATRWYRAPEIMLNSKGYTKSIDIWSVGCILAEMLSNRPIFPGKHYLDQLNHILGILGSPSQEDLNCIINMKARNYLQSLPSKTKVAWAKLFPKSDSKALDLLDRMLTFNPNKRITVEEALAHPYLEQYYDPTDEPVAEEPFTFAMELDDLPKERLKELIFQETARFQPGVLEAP
# Chain of PHKG1 (human) (Q16816 whole entry, looked up): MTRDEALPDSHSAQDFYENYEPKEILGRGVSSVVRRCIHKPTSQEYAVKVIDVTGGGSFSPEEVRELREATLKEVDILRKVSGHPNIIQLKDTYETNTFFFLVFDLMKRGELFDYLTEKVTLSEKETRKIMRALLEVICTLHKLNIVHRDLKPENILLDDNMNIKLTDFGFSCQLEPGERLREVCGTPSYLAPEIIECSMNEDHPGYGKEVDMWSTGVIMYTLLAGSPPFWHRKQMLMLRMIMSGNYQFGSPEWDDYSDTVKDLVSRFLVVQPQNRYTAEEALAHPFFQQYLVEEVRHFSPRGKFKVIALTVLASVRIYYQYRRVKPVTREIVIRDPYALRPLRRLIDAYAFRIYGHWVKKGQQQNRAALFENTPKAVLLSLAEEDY
# Chain of CAMKK2 (human) (Q96RR4 whole entry, looked up): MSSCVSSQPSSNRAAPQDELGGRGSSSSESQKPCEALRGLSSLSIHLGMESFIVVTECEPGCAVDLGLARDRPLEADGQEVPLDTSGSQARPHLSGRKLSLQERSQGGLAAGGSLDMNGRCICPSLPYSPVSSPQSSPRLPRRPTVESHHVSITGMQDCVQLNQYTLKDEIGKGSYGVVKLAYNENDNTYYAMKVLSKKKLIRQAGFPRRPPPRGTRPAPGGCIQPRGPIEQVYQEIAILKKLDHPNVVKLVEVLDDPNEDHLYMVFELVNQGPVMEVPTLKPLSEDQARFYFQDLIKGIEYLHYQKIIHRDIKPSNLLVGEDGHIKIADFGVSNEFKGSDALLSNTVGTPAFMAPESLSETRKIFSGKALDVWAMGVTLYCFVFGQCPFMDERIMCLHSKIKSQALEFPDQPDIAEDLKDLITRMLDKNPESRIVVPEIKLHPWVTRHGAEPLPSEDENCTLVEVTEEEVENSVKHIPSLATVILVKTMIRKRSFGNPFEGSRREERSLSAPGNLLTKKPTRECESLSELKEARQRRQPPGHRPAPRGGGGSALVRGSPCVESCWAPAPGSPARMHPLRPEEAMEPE
# Chain of TSSK2 (human) (Q96PF2 whole entry, looked up): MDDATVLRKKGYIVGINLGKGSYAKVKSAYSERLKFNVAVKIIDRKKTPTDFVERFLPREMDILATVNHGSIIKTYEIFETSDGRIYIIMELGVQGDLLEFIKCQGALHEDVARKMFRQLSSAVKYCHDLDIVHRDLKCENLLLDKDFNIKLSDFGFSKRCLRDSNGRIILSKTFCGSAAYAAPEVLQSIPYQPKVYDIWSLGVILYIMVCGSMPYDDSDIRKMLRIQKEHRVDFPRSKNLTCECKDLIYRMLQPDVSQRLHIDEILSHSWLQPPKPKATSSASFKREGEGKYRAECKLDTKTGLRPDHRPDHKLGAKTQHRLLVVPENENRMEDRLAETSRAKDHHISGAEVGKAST
compound,measurement,setting,value
O=C1NC(=O)C(c2cn(CCCO)c3ncccc23)=C1c1cnccn1,residual activity,EPHA2 (human),105%
same,residual activity,CAMK1G (human),101%
same,residual activity,MAP2K1 (human),106%
same,residual activity,HIPK2 (human),96.6%
same,residual activity,RPS6KA3 KD1 KD2 (human),91.3%
same,residual activity,WEE1 (human),96.2%
same,residual activity,PRKD2 (human),118%
same,residual activity,PAK6 (human),78.2%
same,residual activity,CAMK1D (human),95.1%
same,residual activity,SRC (human),78.9%
same,residual activity,MAPK3 (human),94.5%
same,residual activity,SGK3 (human),124%
same,residual activity,PKN2 (human),83.3%
same,residual activity,LYN (human),101% and 112%
same,residual activity,STK10 (human),104%
same,residual activity,PRKCE (human),102%
same,residual activity,FGFR4 (human),91.5%
same,residual activity,SIK2 (human),101%
same,residual activity,ULK1 (human),102%
same,residual activity,NTRK1 (human),88.1%
same,residual activity,TSSK2 (human),119%
same,residual activity,PLK3 (human),91.1%
same,residual activity,PASK (human),97.1%
same,residual activity,NEK2 (human),97.5%
same,residual activity,PTK6 (human),101%
same,residual activity,PHKG1 (human),87.2%
same,residual activity,CDK5 CDK5R1 p35 (human),73.9%
same,residual activity,MAPK12 (human),86.8%
same,residual activity,MET (human),121%
same,residual activity,GRK7 (human),118%
same,residual activity,MUSK (human),67.1%
same,residual activity,TGFBR2 (human),122%
same,residual activity,CAMKK2 (human),115%
same,residual activity,SRPK2 (human),97.9%
same,residual activity,DYRK4 (human),98.4%
same,residual activity,WNK3 (human),91.3%
same,residual activity,VRK1 (human),86.4%
same,residual activity,CDC42BPA (human),78.6%
same,residual activity,DAPK1 (human),74.4%
same,residual activity,CSNK2A1 (human),78.9%
same,residual activity,NEK3 (human),97.5%
same,residual activity,TBK1 (human),98.8%
Cn1nc2c3c(cccc31)C(=O)c1ccccc1-2,residual activity,EPHA2 (human),104%
same,residual activity,CAMK1G (human),95.5%
same,residual activity,MAP2K1 (human),86.3%
same,residual activity,HIPK2 (human),105%
same,residual activity,RPS6KA3 KD1 KD2 (human),97.3%
same,residual activity,WEE1 (human),92.3%
same,residual activity,PRKD2 (human),77%
same,residual activity,PAK6 (human),98.6%
same,residual activity,CAMK1D (human),70.3%
same,residual activity,SRC (human),90.7%
same,residual activity,MAPK3 (human),98.9%
same,residual activity,SGK3 (human),107%
same,residual activity,PKN2 (human),97.3%
same,residual activity,LYN (human),96.1% and 97.7%
same,residual activity,STK10 (human),94.5%
same,residual activity,PRKCE (human),95.7%
same,residual activity,FGFR4 (human),108%
same,residual activity,SIK2 (human),100%
same,residual activity,ULK1 (human),101%
same,residual activity,NTRK1 (human),95%
same,residual activity,TSSK2 (human),95.4%
same,residual activity,PLK3 (human),96.2%
same,residual activity,PASK (human),94.6%
same,residual activity,NEK2 (human),88.2%
same,residual activity,PTK6 (human),91.8%
same,residual activity,PHKG1 (human),86.4%
same,residual activity,CDK5 CDK5R1 p35 (human),105%
same,residual activity,MAPK12 (human),93.8%
same,residual activity,MET (human),107%
same,residual activity,GRK7 (human),113%
same,residual activity,MUSK (human),88.4%
same,residual activity,TGFBR2 (human),94.9%
same,residual activity,CAMKK2 (human),74.9%
same,residual activity,SRPK2 (human),97.2%
same,residual activity,DYRK4 (human),91.2%
same,residual activity,WNK3 (human),92%
same,residual activity,VRK1 (human),84.1%
same,residual activity,CDC42BPA (human),106%
same,residual activity,DAPK1 (human),86.4%
same,residual activity,CSNK2A1 (human),90.2%
same,residual activity,NEK3 (human),96.7%
same,residual activity,TBK1 (human),88.8%
CN([C@@H](Cc1ccc(OS(=O)(=O)c2cccc3cnccc23)cc1)C(=O)N1CCN(c2ccccc2)CC1)S(=O)(=O)c1cccc2cnccc12,residual activity,EPHA2 (human),101%
same,residual activity,CAMK1G (human),93.6%
same,residual activity,MAP2K1 (human),75.3%
same,residual activity,HIPK2 (human),109%
same,residual activity,RPS6KA3 KD1 KD2 (human),98.6%
same,residual activity,WEE1 (human),87.7%
same,residual activity,PRKD2 (human),100%
same,residual activity,PAK6 (human),102%
same,residual activity,CAMK1D (human),101%
same,residual activity,SRC (human),91.3%
same,residual activity,MAPK3 (human),90.6%
same,residual activity,SGK3 (human),104%
same,residual activity,PKN2 (human),98.6%
same,residual activity,LYN (human),101% and 92.1%
same,residual activity,STK10 (human),96.3%
same,residual activity,PRKCE (human),99.5%
same,residual activity,FGFR4 (human),110%
same,residual activity,SIK2 (human),108%
same,residual activity,ULK1 (human),101%
same,residual activity,NTRK1 (human),111%
same,residual activity,TSSK2 (human),105%
same,residual activity,PLK3 (human),99.3%
same,residual activity,PASK (human),103%
same,residual activity,NEK2 (human),87.4%
same,residual activity,PTK6 (human),89.7%
same,residual activity,PHKG1 (human),93.4%
same,residual activity,CDK5 CDK5R1 p35 (human),99.5%
same,residual activity,MAPK12 (human),92.2%
same,residual activity,MET (human),114%
same,residual activity,GRK7 (human),105%
same,residual activity,MUSK (human),92.7%
same,residual activity,TGFBR2 (human),101%
same,residual activity,CAMKK2 (human),84.2%
same,residual activity,SRPK2 (human),99.4%
same,residual activity,DYRK4 (human),97.8%
same,residual activity,WNK3 (human),101%
same,residual activity,VRK1 (human),92.1%
same,residual activity,CDC42BPA (human),98.9%
same,residual activity,DAPK1 (human),117%
same,residual activity,CSNK2A1 (human),100%
same,residual activity,NEK3 (human),99.8%
same,residual activity,TBK1 (human),101%
Cn1cnc2cc3c(Nc4cccc(Br)c4)ncnc3cc21,residual activity,EPHA2 (human),81.8%
same,residual activity,CAMK1G (human),94.2%
same,residual activity,MAP2K1 (human),113%
same,residual activity,HIPK2 (human),106%
same,residual activity,RPS6KA3 KD1 KD2 (human),105%
same,residual activity,WEE1 (human),106%
same,residual activity,PRKD2 (human),82.6%
same,residual activity,PAK6 (human),95%
same,residual activity,CAMK1D (human),104%
same,residual activity,SRC (human),81.2%
same,residual activity,MAPK3 (human),109%
same,residual activity,SGK3 (human),107%
same,residual activity,PKN2 (human),85.7%
same,residual activity,LYN (human),52.4% and 75.8%
same,residual activity,STK10 (human),35.8%
same,residual activity,PRKCE (human),87.8%
same,residual activity,FGFR4 (human),94.1%
same,residual activity,SIK2 (human),101%
same,residual activity,ULK1 (human),113%
same,residual activity,NTRK1 (human),90.8%
same,residual activity,TSSK2 (human),111%
same,residual activity,PLK3 (human),99.8%
same,residual activity,PASK (human),89.8%
same,residual activity,NEK2 (human),103%
same,residual activity,PTK6 (human),54%
same,residual activity,PHKG1 (human),85%
same,residual activity,CDK5 CDK5R1 p35 (human),84.6%
same,residual activity,MAPK12 (human),92%
same,residual activity,MET (human),101%
same,residual activity,GRK7 (human),106%
same,residual activity,MUSK (human),85.3%
same,residual activity,TGFBR2 (human),98.9%
same,residual activity,CAMKK2 (human),99.6%
same,residual activity,SRPK2 (human),97.1%
same,residual activity,DYRK4 (human),97.5%
same,residual activity,WNK3 (human),95.8%
same,residual activity,VRK1 (human),100%
same,residual activity,CDC42BPA (human),93.2%
same,residual activity,DAPK1 (human),87.2%
same,residual activity,CSNK2A1 (human),99%
same,residual activity,NEK3 (human),88.2%
same,residual activity,TBK1 (human),87.7%

# Source: the kinase profiling compilation of Christmann-Franck et al. (2016)
